Measured values taken from patent publication US9708286B2, “Ingenol-3-acylates III and ingenol-3-carbamates” (LEO Laboratories Limited, priority 2010, dated 2017).
Where two headings read alike, the source gives them in different places.

Legend:
Assay type in all cases: cell-based
[1] = system: PMN's (polymorphonuclear leukocytes); experiment: Neutrophil oxidative burst; conditions: normalized to 5×10^−7 M PEP0005
In short: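 Human buffy-coat neutrophils (2.5×10^5/well) in HBSS with 0.1% BSA, 5 mM glucose treated with compound premixed with 10 μM hydroethidine for 40 min at RT; fluorescence read at 485/579 nm. Normalized to 5×10^−7 M PEP0005; Rel EC50 is midway between fitted top and bottom, Abs EC50 gives 50% of PEP0005 maximum.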

[2] = system: Primary human epidermal keratinocytes, HeKa; experiment: HeKa cytokine release (IL-8); conditions: read-out: HeKa cytokine release (IL-8) Rel EC50 range
In short: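 Seeded cells exposed to compound dilutions for 6 h at 37° C; IL-8 in supernatant quantified by MSD sandwich electrochemiluminescence immunoassay. Effects normalized to positive control (1.5×10^−7 M PEP0005), four-parameter sigmoidal fit; Rel EC50 is concentration midway between fitted top and bottom.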

HeLa cells = experiment: Necrosis assay; conditions: Homo sapiens, 0.5 h, read-out: HeLa necrosis EC50 range
In short: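 HeLa cells treated with compound at 10 μM to 400 μM (final) for 30 min at 37° C., viability then measured by PrestoBlue fluorescence (ex 535/em 630 nm). Normalized to 1% DMSO and 400 μM ingenol mebutate controls; AbsEC50 from four-parameter sigmoidal fit.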

[3] = Leukocyte, 40 min, read-out: Neutrophil oxidative burst Rel EC50 range, PMN from buffy coats, 40 min at RT, hydroethidine fluorescence

| SMILES | EC50 [1, 3] | EC50 ([2]; Homo sapiens, HEKa, 6 h) | EC50 (HeLa cells; HeLa) | EC50 ([1]; read-out: Neutrophil oxidative burst Rel EC50 range, PMN from buffy coats, 40 min at RT, hydroethidine fluorescence) | EC50 ([2]; HeKa cells, 6 h at 37° C., IL-8 by MSD assay, normalized to 1.5×10^−7 M PEP0005) | EC50 ([1]; Leukocyte, 40 min, PMN from buffy coats, 40 min at RT, hydroethidine fluorescence, read-out: Neutrophil oxidative burst Rel EC50 range) | EC50 ([2]; Homo sapiens, HeKa cells, 6 h at 37° C., IL-8 by MSD assay, normalized to 1.5×10^−7 M PEP0005) | EC50 (HeLa cells; HeLa cells, 30 min at 37° C., PrestoBlue, AbsEC50, normalized to 400 μM ingenol mebutate) |
| --- | --- | --- | --- | --- | --- | --- | --- | --- |
| CC1=C[C@]23C(=O)[C@@H](C=C(CO)[C@@H](O)[C@]2(O)[C@H]1OC(=O)c1c(C)nc2sccn12)[C@H]1[C@@H](C[C@H]3C)C1(C)C [Compound 534, Ingenol 3-(6-methylimidazo[2,1-b]thiazole-5-carboxylate)] | < 0.02 µM | < 0.02 µM | 150 to 350 µM | – | – | – | – | – |
| CC1=C[C@]23C(=O)[C@@H](C=C(CO)[C@@H](O)[C@]2(O)[C@H]1OC(=O)c1nc(C)oc1C)[C@H]1[C@@H](C[C@H]3C)C1(C)C [Compound 528, Ingenol 3-(2,5-dimethyloxazole-4-carboxylate)] | 0.02 to 0.1 µM | > 0.1 µM | > 350 µM | – | – | – | – | – |
| CC1=C[C@]23C(=O)[C@@H](C=C(CO)[C@@H](O)[C@]2(O)[C@H]1OC(=O)N(C)c1nc(C)cs1)[C@H]1[C@@H](C[C@H]3C)C1(C)C [Compound 752, Ingenol 3-(N-methyl-N-(4-methylthiazol-2-yl)-carbamate)] | < 0.02 µM | < 0.02 µM | 150 to 350 µM | – | – | – | – | – |
| CC1=C[C@]23C(=O)[C@@H](C=C(CO)[C@@H](O)[C@]2(O)[C@H]1OC(=O)c1cc(C)c[nH]1)[C@H]1[C@@H](C[C@H]3C)C1(C)C [Compound 582, Ingenol 3-(4-methyl-1H-pyrrole-2-carboxylate)] | < 0.02 µM | < 0.02 µM | 150 to 350 µM | – | – | – | – | – |
| CC1=C[C@]23C(=O)[C@@H](C=C(CO)[C@@H](O)[C@]2(O)[C@H]1OC(=O)C1N(C(=O)OC(C)(C)C)CCC1(C)C)[C@H]1[C@@H](C[C@H]3C)C1(C)C (stereo partly drawn) [Compound 544, Ingenol 3-(1-tert-butyloxycarbonyl-3,3-dimethylpyrrolidine-2-carboxylate)] | > 0.1 µM | > 0.1 µM | 150 to 350 µM | – | – | – | – | – |
| CC1=C[C@]23C(=O)[C@@H](C=C(CO)[C@@H](O)[C@]2(O)[C@H]1OC(=O)c1cnnc2ccccc12)[C@H]1[C@@H](C[C@H]3C)C1(C)C [Compound 514, Ingenol 3-(cinnoline-4-carboxylate)] | > 0.1 µM | > 0.1 µM | < 150 µM | – | – | – | – | – |
| CC1=C[C@]23C(=O)[C@@H](C=C(CO)[C@@H](O)[C@]2(O)[C@H]1OC(=O)c1c(C)nsc1I)[C@H]1[C@@H](C[C@H]3C)C1(C)C [Compound 553, Ingenol 3-(5-iodo-3-methyl-isothiazole-4-carboxylate)] | < 0.02 µM | < 0.02 µM | 150 to 350 µM | – | – | – | – | – |
| COc1ccc2c(c1)c(C)c(C(=O)O[C@H]1C(C)=C[C@]34C(=O)[C@@H](C=C(CO)[C@@H](O)[C@]13O)[C@H]1[C@@H](C[C@H]4C)C1(C)C)n2C [Compound 572, Ingenol 3-(5-methoxy-1,3-dimethyl-indole-2-carboxylate)] | < 0.02 µM | < 0.02 µM | < 150 µM | – | – | – | – | – |
| CC1=C[C@]23C(=O)[C@@H](C=C(CO)[C@@H](O)[C@]2(O)[C@H]1OC(=O)N1CCCC1C(F)(F)F)[C@H]1[C@@H](C[C@H]3C)C1(C)C (single isomer, unassigned; isomer b) [Compound 741, Ingenol 3-(2-trifluoromethyl-pyrrolidine-1-carboxylate) (ISOMER B)] | – | – | > 350 µM | 0.02 to 0.1 µM | 0.02 to 0.1 µM | – | – | – |
| CC1=C[C@]23C(=O)[C@@H](C=C(CO)[C@@H](O)[C@]2(O)[C@H]1OC(=O)N1CC2CCC(CC2)C1)[C@H]1[C@@H](C[C@H]3C)C1(C)C [Compound 736, Ingenol 3-(3-azabicyclo[3.2.2]nonane-3-carboxylate)] | – | – | – | – | – | < 0.02 µM | < 0.02 µM | 150 to 350 µM |
| CC1=C[C@]23C(=O)[C@@H](C=C(CO)[C@@H](O)[C@]2(O)[C@H]1OC(=O)c1cccn1C)[C@H]1[C@@H](C[C@H]3C)C1(C)C [Compound 581, Ingenol 3-(1-methylpyrrole-2-carboxylate)] | < 0.02 µM | < 0.02 µM | 150 to 350 µM | – | – | – | – | – |
